≈ marks a conversion by molar mass, not a printed value. Residues, ends and D or L forms follow the SMILES beside them.
Legend:
HEK293 cell line = type: cell-based; conditions: 48 h
Summary of the method: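 HEK293 cells seeded at 2 × 10³/well, incubated 48 h at 37 °C with serially diluted compounds (stock 2 mg/mL) in DMEM with 10% FBS. AlamarBlue added at 10% final for 3–5 h; fluorescence ex 560/em 590 nm, normalized to untreated cells.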

P. aeruginosa ZEM-1A = conditions: ZEM-1A, pH 7.4
S. maltophilia = conditions: pH 7.4
K. pneumoniae OXA-48 = conditions: OXA-48, pH 7.4
[1] = system: S aureus COL (methicillin-resistant Staphylococcus aureus)
S. aureus Newman = conditions: Newman, pH 7.4
B. cenocepacia = conditions: pH 7.4
P. aeruginosa ZEM9A = conditions: ZEM9A, pH 7.4
P. aeruginosa PA14 = conditions: PA14, pH 7.4
E. cloacae = conditions: pH 7.4

MIC at pH 5.0, P. aeruginosa PAO1 (P. aeruginosa PAO1; PAO1, pH 5): 16 μg/mL
MIC at pH 7.4, P. aeruginosa PAO1 (P. aeruginosa PAO1; PAO1, pH 7.4): 4 μg/mL
MIC at pH 8.0, P. aeruginosa PAO1 (P. aeruginosa PAO1; PAO1, pH 8): 1 μg/mL
MIC, P. aeruginosa ZEM-1A (P. aeruginosa ZEM-1A): 4 µg/mL (≈ 0.882 µM)
MIC at pH 5.0, E. coli W3110 (E. coli W3110; W3110, pH 5): 32 μg/mL
MIC at pH 7.4, E. coli W3110 (E. coli W3110; W3110, pH 7.4): 8 μg/mL
MIC at pH 8.0, E. coli W3110 (E. coli W3110; W3110, pH 8): 1–2 μg/mL
MIC, S. maltophilia (S. maltophilia): 8 µg/mL (≈ 1.76 µM)
MIC, K. pneumoniae OXA-48 (K. pneumoniae OXA-48): >64 µg/mL
MIC at pH 5.0, S aureus COL ([1]; COL (methicillin-resistant, pH 5)): > 64 μg/mL
MIC at pH 7.4, S aureus COL ([1]; COL (methicillin-resistant, pH 7.4)): > 64 μg/mL
MIC at pH 8.0, S aureus COL ([1]; COL (methicillin-resistant, pH 8)): 2 μg/mL
MIC at pH 5.0, K. pneumoniae NCTC 418 (K. pneumoniae NCTC 418; NCTC 418, pH 5): > 64 μg/mL
MIC at pH 7.4, K. pneumoniae NCTC 418 (K. pneumoniae NCTC 418; NCTC 418, pH 7.4): > 64 μg/mL
MIC at pH 8.0, K. pneumoniae NCTC 418 (K. pneumoniae NCTC 418; NCTC 418, pH 8): 4 μg/mL
MIC, S. aureus Newman (S. aureus Newman): >64 µg/mL
MIC, B. cenocepacia (B. cenocepacia): >64 µg/mL
MIC, P. aeruginosa ZEM9A (P. aeruginosa ZEM9A): 16 µg/mL (≈ 3.53 µM)
MIC at pH 5.0, A. baumannii ATCC 19606 (A. baumannii ATCC 19606; ATCC 19606, pH 5): 8 μg/mL
MIC at pH 7.4, A. baumannii ATCC 19606 (A. baumannii ATCC 19606; ATCC 19606, pH 7.4): 8 μg/mL
MIC at pH 8.0, A. baumannii ATCC 19606 (A. baumannii ATCC 19606; ATCC 19606, pH 8): 1 μg/mL
MIC, P. aeruginosa PA14 (P. aeruginosa PA14): 2 to 4 µg/mL
MIC, E. cloacae (E. cloacae): 8 µg/mL (≈ 1.76 µM)
SMILES: CC(C)C[C@H](NC(=O)[C@H](CCCCN)NC(=O)[C@H](CCCCNC(=O)[C@H](CC(C)C)NC(=O)[C@H](CCCCN)NC(=O)[C@H](CCCCNC(=O)[C@H](CC(C)C)NC(=O)[C@H](CCCCN)NC(=O)[C@H](CCCCNC(=O)[C@H](CC(C)C)NC(=O)[C@@H](N)CCCCN)NC(=O)[C@H](CC(C)C)NC(=O)[C@@H](N)CCCCN)NC(=O)[C@H](CC(C)C)NC(=O)[C@H](CCCCN)NC(=O)[C@H](CCCCNC(=O)[C@H](CC(C)C)NC(=O)[C@@H](N)CCCCN)NC(=O)[C@H](CC(C)C)NC(=O)[C@@H](N)CCCCN)NC(=O)[C@H](CC(C)C)NC(=O)[C@H](CCCCN)NC(=O)[C@H](CCCCNC(=O)[C@H](CC(C)C)NC(=O)[C@H](CCCCN)NC(=O)[C@H](CCCCNC(=O)[C@H](CC(C)C)NC(=O)[C@@H](N)CCCCN)NC(=O)[C@H](CC(C)C)NC(=O)[C@@H](N)CCCCN)NC(=O)[C@H](CC(C)C)NC(=O)[C@H](CCCCN)NC(=O)[C@H](CCCCNC(=O)[C@H](CC(C)C)NC(=O)[C@@H](N)CCCCN)NC(=O)[C@H](CC(C)C)NC(=O)[C@@H](N)CCCCN)C(N)=O [L-G3KL, reference compound] (HELM PEPTIDE1{K.L.K.K.L.K.K.L.K.K.L.[am]}|PEPTIDE2{K.L}|PEPTIDE3{K.L.K.K.L.K.K.L}|PEPTIDE4{K.L}|PEPTIDE5{K.L.K.K.L}|PEPTIDE6{K.L}|PEPTIDE7{K.L.K.K.L}|PEPTIDE8{K.L}$PEPTIDE1,PEPTIDE2,3:R3-2:R2|PEPTIDE3,PEPTIDE4,3:R3-2:R2|PEPTIDE5,PEPTIDE6,3:R3-2:R2|PEPTIDE7,PEPTIDE8,3:R3-2:R2|PEPTIDE1,PEPTIDE7,6:R3-5:R2|PEPTIDE1,PEPTIDE3,9:R3-8:R2|PEPTIDE3,PEPTIDE5,6:R3-5:R2$$$V2.0)
IC50 HEK293 (HEK293 cell line): 460 ± 17 µg/mL (≈ 101 µM)
